Source: US20210169892A1, “MODULATORS OF THE INTEGRATED STRESS PATHWAY” (Calico Life Sciences LLC, priority 2017, published 2021)

Tested on: HEK293T cells carrying the ATF4 luciferase reporter
Experiment: ATF4-Luc assay (in vitro model of vanishing white matter disease)
Format: cell-based
Settings: Homo sapiens, HEK-293T; HEK293T cells with ATF4 luciferase reporter, 1 μg/mL tunicamycin, 7 hours, One Glo luminescence
Description: In order to test exemplary compounds of the invention in a cellular context, a stable VWMD cell line was first constructed. The ATF4 reporter was prepared by fusing the human full-length ATF4 5′-UTR (NCBI Accession No. BC022088.2) in front of the firefly luciferase (FLuc) coding sequence lacking the initiator methionine as described in Sidrauski et al (eLife 2013). The construct was used to produce recombinant retroviruses using standard methods and the resulting viral supernatant was used to transduce HEK293T cells, which were then subsequently selected with puromycin to generate a stable cell line.
HEK293T cells carrying the ATF4 luciferase reporter were plated on polylysine coated 384-well plates (Greiner Bio-one) at 30,000 cells per well. Cells were treated the next day with 1 μg/mL tunicamycin and 200 nM of a compound of Formula (I) for 7 hours. Luminescence was measured using One Glo (Promega) as specified by the manufacturer. Cells were maintained in DMEM with L-glutamine supplemented with 10% heat-inactivated FBS (Gibco) and Antibiotic-Antimycotic solution (Gibco).
Table 2 below summarizes the EC50 data obtained using the ATF4-Luc assay for exemplary compounds of the invention.

Row | Structure (SMILES) | EC50
1 | Cc1ncc(S(=O)(=O)N2CC(C(=O)NC34CC(NC(=O)COc5ccc(Cl)c(F)c5)(C3)C4)Oc3ccc(Cl)cc32)n1C (stereo not shown) [Compound 137, 6-chloro-N-{3-[2-(4-chloro-3-fluorophenoxy)acetamido]bicyclo[1.1.1]pentan-1-yl}-4-(1,2-dimethyl-1H-imidazole-5-sulfonyl)-3,4-dihydro-2H-1,4-benzoxazine-2-carboxamide] | > 2000 nM
2 | O=C(COc1ccc(Cl)c(F)c1)NC12CC(NC(=O)C3CN(C(=O)[C@H]4C[C@@H]4F)c4cc(Cl)ccc4O3)(C1)C2 (stereo partly drawn) [Compound 138, 6-chloro-N-{3-[2-(4-chloro-3-fluorophenoxy)acetamido]bicyclo[1.1.1]pentan-1-yl}-4-[(1R,2S)-2-fluorocyclopropane-1-carbonyl]-3,4-dihydro-2H-1,4-benzoxazine-2-carboxamide] | 250 to 500 nM
3 | CCOCCS(=O)(=O)N1CC(C(=O)NC23CC(NC(=O)COc4ccc(Cl)c(F)c4)(C2)C3)Oc2ccc(Cl)cc21 (stereo not shown) [Compound 139, 6-chloro-N-{3-[2-(4-chloro-3-fluorophenoxy)acetamido]bicyclo[1.1.1]pentan-1-yl}-4-(2-ethoxyethanesulfonyl)-3,4-dihydro-2H-1,4-benzoxazine-2-carboxamide] | 50 to 250 nM
4 | O=C(COc1ccc(Cl)c(F)c1)NC12CC(NC(=O)C3CN(C(=O)C4(F)CC4)c4cc(Cl)ccc4O3)(C1)C2 (stereo not shown) [Compound 140, 6-chloro-N-{3-[2-(4-chloro-3-fluorophenoxy)acetamido]bicyclo[1.1.1]pentan-1-yl}-4-(1-fluorocyclopropane-1-carbonyl)-3,4-dihydro-2H-1,4-benzoxazine-2-carboxamide] | 50 to 250 nM
5 | O=C(COc1ccc(Cl)c(F)c1)NC12CC(NC(=O)C3CN(C(=O)CC(F)(F)C(F)(F)F)c4cc(Cl)ccc4O3)(C1)C2 (stereo not shown) [Compound 141, 6-chloro-N-{3-[2-(4-chloro-3-fluorophenoxy)acetamido]bicyclo[1.1.1]pentan-1-yl}-4-(3,3,4,4,4-pentafluorobutanoyl)-3,4-dihydro-2H-1,4-benzoxazine-2-carboxamide] | 10 to 50 nM
6 | O=C(COc1ccc(Cl)c(F)c1)NC12CC(NC(=O)C3CN(C(=O)c4ccc(OC(F)(F)F)cc4)c4cc(Cl)ccc4O3)(C1)C2 (stereo not shown) [Compound 143, 6-chloro-N-{3-[2-(4-chloro-3-fluorophenoxy)acetamido]bicyclo[1.1.1]pentan-1-yl}-4-[4-(trifluoromethoxy)benzoyl]-3,4-dihydro-2H-1,4-benzoxazine-2-carboxamide] | 500 to 2000 nM
7 | Cc1ccc(C(=O)N2CC(C(=O)NC34CC(NC(=O)COc5ccc(Cl)c(F)c5)(C3)C4)Oc3ccc(Cl)cc32)o1 (stereo not shown) [Compound 145, 6-chloro-N-{3-[2-(4-chloro-3-fluorophenoxy)acetamido]bicyclo[1.1.1]pentan-1-yl}-4-(5-methylfuran-2-carbonyl)-3,4-dihydro-2H-1,4-benzoxazine-2-carboxamide] | 50 to 250 nM
8 | COc1cccc(C(=O)N2CC(C(=O)NC34CC(NC(=O)COc5ccc(Cl)c(F)c5)(C3)C4)Oc3ccc(Cl)cc32)c1 (stereo not shown) [Compound 146, 6-chloro-N-{3-[2-(4-chloro-3-fluorophenoxy)acetamido]bicyclo[1.1.1]pentan-1-yl}-4-(3-methoxybenzoyl)-3,4-dihydro-2H-1,4-benzoxazine-2-carboxamide] | 500 to 2000 nM
9 | O=C(COc1ccc(Cl)c(F)c1)NC12CC(NC(=O)C3CN(C(=O)c4ccc(S(=O)(=O)F)cc4)c4cc(Cl)ccc4O3)(C1)C2 (stereo not shown) [Compound 147, 4-[6-chloro-2-({3-[2-(4-chloro-3-fluorophenoxy)acetamido]bicyclo[1.1.1]pentan-1-yl}carbamoyl)-2,3-dihydro-4H-1,4-benzoxazine-4-carbonyl]benzene-1-sulfonyl fluoride] | 500 to 2000 nM
10 | O=C(COc1ccc(Cl)c(F)c1)NC12CC(NC(=O)C3CN(C(=O)CCC(F)(F)F)c4cc(Cl)ccc4O3)(C1)C2 (stereo not shown) [Compound 148, 6-chloro-N-{3-[2-(4-chloro-3-fluorophenoxy)acetamido]bicyclo[1.1.1]pentan-1-yl}-4-(4,4,4-trifluorobutanoyl)-3,4-dihydro-2H-1,4-benzoxazine-2-carboxamide] | 50 to 250 nM
